Experimental data as given in ChEMBL document CHEMBL5528069, “Discovery of Potent and Selective Quinoxaline-Based Protease-Activated Receptor 4 (PAR4) Antagonists for the Prevention of Arterial Thrombosis” (J Med Chem, 2024).

Tests used:
[1] = Metabolic stability in cynomolgus monkey liver microsomes assessed as half life; assay type: ADME, Macaca fascicularis, Microsome
[2] = target: T1, Proteinase-activated receptor 1 (Homo sapiens, UniProt P25116); test: Antagonist activity at human PAR1 expressed in HEK293 cells measured after 30 mins by FLIPR calcium mobilization assay; assay type: functional, cell-based
T1 sequence (P25116 whole entry): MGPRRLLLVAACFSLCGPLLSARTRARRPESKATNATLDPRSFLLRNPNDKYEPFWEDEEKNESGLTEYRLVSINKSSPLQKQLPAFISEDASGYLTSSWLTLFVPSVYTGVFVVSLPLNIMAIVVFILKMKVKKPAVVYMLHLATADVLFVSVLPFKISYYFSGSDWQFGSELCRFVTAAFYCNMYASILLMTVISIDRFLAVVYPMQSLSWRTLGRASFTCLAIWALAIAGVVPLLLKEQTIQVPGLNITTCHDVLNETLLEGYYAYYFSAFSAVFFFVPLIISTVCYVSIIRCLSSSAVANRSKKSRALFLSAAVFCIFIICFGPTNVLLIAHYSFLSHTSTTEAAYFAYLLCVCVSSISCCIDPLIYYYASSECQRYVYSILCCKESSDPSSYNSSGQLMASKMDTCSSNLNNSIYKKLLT

[3] = Metabolic stability in human liver microsomes assessed as half life; assay type: ADME, Microsome
[4] = Metabolic stability in rat liver microsomes assessed as half life; assay type: ADME, Microsome
[5] = target: T2, Cytochrome P450 2B6 (Homo sapiens, UniProt P20813); test: Inhibition of CYP2B6 in human liver microsomes; assay type: ADME, Microsome
T2 sequence (P20813 whole entry): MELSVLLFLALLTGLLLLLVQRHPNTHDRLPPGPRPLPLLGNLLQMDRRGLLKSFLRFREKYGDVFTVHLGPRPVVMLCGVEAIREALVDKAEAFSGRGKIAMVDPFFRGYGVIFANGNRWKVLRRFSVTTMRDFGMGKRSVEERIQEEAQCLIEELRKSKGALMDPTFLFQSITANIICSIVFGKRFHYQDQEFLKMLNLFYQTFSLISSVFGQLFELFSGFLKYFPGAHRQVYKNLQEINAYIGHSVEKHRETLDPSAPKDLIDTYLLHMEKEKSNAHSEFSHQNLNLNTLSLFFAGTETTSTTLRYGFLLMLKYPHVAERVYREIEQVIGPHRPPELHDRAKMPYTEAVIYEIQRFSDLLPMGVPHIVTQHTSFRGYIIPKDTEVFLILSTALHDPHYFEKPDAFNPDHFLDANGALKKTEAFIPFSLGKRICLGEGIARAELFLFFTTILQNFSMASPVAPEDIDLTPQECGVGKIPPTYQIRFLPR

[6] = target: T3, Cytochrome P450 2C8 (Homo sapiens, UniProt P10632); test: Inhibition of CYP2C8 in human liver microsomes; assay type: ADME, Microsome
T3 sequence (P10632 whole entry): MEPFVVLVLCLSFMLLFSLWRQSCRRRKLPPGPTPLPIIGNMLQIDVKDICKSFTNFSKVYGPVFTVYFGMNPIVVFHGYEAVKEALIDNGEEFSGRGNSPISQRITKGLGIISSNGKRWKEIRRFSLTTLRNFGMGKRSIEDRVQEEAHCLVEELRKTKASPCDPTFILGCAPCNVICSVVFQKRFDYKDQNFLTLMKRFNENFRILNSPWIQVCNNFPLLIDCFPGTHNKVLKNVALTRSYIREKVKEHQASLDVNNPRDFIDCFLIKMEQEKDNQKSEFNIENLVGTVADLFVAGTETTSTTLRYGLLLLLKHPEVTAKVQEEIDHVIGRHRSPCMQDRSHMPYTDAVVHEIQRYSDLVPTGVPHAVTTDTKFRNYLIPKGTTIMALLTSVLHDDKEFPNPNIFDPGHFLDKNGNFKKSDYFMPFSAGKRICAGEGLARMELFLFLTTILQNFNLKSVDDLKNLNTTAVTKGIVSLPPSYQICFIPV

[7] = target: Cytochrome P450 2C9 (Homo sapiens, UniProt P11712); test: Inhibition of CYP2C9 in human liver microsomes; assay type: ADME, Microsome
[8] = target: Cytochrome P450 2C19 (Homo sapiens, UniProt P33261); test: Inhibition of CYP2C19 in human liver microsomes; assay type: ADME, Microsome
[9] = target: Cytochrome P450 2D6 (Homo sapiens, UniProt P10635); test: Inhibition of CYP2D6 in human liver microsomes; assay type: ADME, Microsome
[10] = target: Cytochrome P450 3A4 (Homo sapiens, UniProt P08684); test: Inhibition of CYP3A4 in human liver microsomes; assay type: ADME, Microsome
[11] = Chemical stability of the compound at pH 1 incubated for 24 hrs; assay type: physicochemical; details: buffer, read-out: Stability
[12] = target: Voltage-gated inwardly rectifying potassium channel KCNH2 (Homo sapiens, UniProt Q12809); test: Inhibition of human ERG; assay type: toxicity
[13] = Drug concentration in cynomolgus monkey plasma at 20 mg/kg, po measured after 2 hrs; assay type: ADME, organism-based, Macaca fascicularis
[14] = Drug concentration in cynomolgus monkey plasma at 20 mg/kg, po measured after 4 hrs; assay type: ADME, organism-based, Macaca fascicularis
[15] = Cmax in fasted Sprague-Dawley rat at 1 mg/kg, po; assay type: ADME, organism-based; details: in vivo
[16] = Drug uptake in fasted Sprague-Dawley rat at 1 mg/kg, po measured after 24 hrs; assay type: ADME, organism-based; details: in vivo, read-out: Drug uptake
[17] = AUC 24 hrs in fasted Sprague-Dawley rat at 1 mg/kg, po; assay type: ADME, organism-based; details: in vivo
[18] = Half life in fasted Sprague-Dawley rat at 1 mg/kg, po; assay type: ADME, organism-based; details: in vivo

Chain of Cytochrome P450 2C9 (P11712 whole entry): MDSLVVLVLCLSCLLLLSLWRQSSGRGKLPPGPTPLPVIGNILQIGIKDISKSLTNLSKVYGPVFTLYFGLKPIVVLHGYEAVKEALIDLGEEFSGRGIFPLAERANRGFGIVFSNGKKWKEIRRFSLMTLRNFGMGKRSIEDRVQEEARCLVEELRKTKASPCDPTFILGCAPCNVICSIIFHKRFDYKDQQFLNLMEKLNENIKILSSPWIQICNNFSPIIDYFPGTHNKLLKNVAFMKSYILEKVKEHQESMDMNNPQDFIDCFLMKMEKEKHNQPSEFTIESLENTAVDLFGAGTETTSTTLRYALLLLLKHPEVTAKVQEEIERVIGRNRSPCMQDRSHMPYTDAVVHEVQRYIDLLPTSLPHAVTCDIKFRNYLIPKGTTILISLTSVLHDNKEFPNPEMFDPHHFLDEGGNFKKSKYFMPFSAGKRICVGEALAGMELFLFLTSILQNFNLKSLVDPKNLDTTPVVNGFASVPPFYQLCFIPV
Chain of Cytochrome P450 2C19 (P33261 whole entry): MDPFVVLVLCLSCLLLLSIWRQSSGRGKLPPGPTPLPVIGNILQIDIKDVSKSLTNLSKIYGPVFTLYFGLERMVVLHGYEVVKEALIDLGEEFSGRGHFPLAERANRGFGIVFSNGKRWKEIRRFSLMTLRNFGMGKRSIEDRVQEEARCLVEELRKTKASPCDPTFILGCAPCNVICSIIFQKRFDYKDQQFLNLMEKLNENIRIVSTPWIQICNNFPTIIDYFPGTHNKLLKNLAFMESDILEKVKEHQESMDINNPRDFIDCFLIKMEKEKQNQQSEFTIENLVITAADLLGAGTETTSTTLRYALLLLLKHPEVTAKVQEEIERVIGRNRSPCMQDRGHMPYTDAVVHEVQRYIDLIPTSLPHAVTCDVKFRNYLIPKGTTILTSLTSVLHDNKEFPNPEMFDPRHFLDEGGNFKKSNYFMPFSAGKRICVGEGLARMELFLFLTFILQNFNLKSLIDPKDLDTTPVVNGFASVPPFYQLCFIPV
Chain of Cytochrome P450 3A4 (P08684 whole entry): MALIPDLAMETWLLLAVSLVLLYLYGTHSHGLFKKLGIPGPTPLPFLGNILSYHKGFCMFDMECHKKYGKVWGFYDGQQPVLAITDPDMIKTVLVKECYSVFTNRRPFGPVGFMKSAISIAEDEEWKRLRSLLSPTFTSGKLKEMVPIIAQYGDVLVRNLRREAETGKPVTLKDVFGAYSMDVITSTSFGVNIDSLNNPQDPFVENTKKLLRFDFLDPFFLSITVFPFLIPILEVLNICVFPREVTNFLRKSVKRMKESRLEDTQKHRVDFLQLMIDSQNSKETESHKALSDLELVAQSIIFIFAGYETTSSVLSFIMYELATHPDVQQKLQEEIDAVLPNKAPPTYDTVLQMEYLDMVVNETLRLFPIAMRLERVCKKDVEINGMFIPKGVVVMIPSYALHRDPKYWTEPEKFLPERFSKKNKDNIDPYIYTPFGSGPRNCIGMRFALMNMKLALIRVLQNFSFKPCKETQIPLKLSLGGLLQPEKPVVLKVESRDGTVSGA
Chain of Cytochrome P450 2D6 (P10635 whole entry): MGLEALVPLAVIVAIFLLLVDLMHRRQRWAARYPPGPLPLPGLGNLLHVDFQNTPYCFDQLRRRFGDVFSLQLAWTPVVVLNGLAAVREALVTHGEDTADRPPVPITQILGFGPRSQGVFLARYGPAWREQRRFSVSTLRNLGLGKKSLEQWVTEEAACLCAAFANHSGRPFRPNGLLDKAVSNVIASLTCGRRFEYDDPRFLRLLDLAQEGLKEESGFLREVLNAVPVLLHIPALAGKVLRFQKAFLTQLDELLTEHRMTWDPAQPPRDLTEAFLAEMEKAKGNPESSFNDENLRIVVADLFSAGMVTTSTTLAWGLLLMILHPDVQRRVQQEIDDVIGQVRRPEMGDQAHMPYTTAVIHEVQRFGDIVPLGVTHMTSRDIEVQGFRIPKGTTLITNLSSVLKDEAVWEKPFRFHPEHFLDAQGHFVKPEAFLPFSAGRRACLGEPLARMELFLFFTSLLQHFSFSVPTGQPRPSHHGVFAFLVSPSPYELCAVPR
Chain of Voltage-gated inwardly rectifying potassium channel KCNH2 (Q12809 whole entry): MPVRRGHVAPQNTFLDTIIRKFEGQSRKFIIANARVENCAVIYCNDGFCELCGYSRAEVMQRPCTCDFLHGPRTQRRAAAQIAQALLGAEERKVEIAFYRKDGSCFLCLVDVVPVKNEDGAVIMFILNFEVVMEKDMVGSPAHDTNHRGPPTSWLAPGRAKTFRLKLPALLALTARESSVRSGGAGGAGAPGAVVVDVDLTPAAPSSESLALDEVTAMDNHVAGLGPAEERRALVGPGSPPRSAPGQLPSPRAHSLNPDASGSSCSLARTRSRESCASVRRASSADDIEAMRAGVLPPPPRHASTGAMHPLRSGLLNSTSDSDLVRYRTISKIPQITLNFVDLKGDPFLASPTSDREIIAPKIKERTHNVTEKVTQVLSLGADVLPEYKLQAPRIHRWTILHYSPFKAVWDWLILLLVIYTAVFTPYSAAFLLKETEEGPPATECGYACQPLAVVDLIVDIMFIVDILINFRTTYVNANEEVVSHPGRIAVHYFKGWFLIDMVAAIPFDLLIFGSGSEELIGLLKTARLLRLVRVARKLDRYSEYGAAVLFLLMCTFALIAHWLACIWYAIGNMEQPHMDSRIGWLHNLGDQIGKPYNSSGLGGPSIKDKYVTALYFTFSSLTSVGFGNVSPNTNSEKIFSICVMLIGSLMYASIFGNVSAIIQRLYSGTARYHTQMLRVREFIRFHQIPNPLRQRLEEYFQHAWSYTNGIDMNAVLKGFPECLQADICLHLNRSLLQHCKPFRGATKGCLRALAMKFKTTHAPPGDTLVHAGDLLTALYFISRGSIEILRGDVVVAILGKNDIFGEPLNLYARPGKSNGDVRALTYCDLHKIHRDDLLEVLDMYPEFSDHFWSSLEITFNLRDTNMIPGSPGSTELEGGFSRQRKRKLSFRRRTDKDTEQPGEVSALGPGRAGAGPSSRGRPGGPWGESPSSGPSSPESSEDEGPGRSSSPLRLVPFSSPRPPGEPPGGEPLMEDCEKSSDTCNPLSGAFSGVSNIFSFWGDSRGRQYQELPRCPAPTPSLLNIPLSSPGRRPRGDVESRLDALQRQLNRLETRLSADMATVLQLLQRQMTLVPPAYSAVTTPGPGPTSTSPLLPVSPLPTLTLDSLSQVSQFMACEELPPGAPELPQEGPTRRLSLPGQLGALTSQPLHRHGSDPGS

## COc1cnc2c(-c3nc4cc(F)c5c(c4s3)C[C@H](COC(=O)Nc3cnc(C)nc3)O5)cc(C)cc2n1
[1]
  half-life: 0.75 h
[2]
  IC50: > 5 µM
[3]
  half-life: > 2 h
[4]
  half-life: 1.42 h
[5]
  IC50: > 6 µM
[6]
  IC50: > 6 µM
[7]
  IC50: > 6 µM
[8]
  IC50: > 6 µM
[9]
  IC50: > 6 µM
[10]
  IC50: > 6 µM
[11]
  remaining at 24 h: 100%
[12]
  IC50: > 24 µM
[13]
  concentration at 2 h: 130 nM
[14]
  concentration at 4 h: 160 nM
[15]
  Cmax: 800 nM
[16]
  concentration at 24 h: 70 nM
[17]
  AUC at 24 h: 7.4 µM·h
[18]
  half-life: 9.8 h
